{"source": "paper PMC9199361", "about": "(Inorganic chemistry, 2020)", "origin": "cited, not measured here", "key": {"[1]": {"details": "for log KML: copper(II) complex of the chelator"}, "[2]": {"details": "5 M HCl, 90 °C"}, "[3]": {"details": "copper complex of the chelator"}}, "data": [{"smiles": "O=C(O)CN1CCCN2CCN(CCCN(CC(=O)O)CC2)CC1", "note": "[CB-TE2A]", "values": [{"measurement": "log KML", "setting": "[1]", "result": 27.1}, {"measurement": "acid stability (conditions)", "setting": "[2]", "result": "254 h (5 M HCl, 90 °C)"}, {"measurement": "E1/2 (V)", "setting": "[3]", "result": "−0.88", "unit": "V"}, {"measurement": "reversibility of the redox event at E1/2", "setting": "[3]", "result": "quasi-rev"}]}, {"smiles": "O=C(O)CN1CCN(CC(=O)O)CCN(CC(=O)O)CC1", "note": "[NOTA]", "values": [{"measurement": "thermodynamic stability constant (log KML)", "setting": "[1]; copper(II) complex", "result": 21.9}, {"measurement": "acid stability (conditions)", "setting": "[2]", "result": "<3 min (5 M HCl, 90 °C)"}, {"measurement": "reversibility of the redox event at E1/2", "setting": "[3]", "result": "irrev"}]}, {"smiles": "O=C(O)CN1CCCN(CC(=O)O)CCN(CC(=O)O)CCCN(CC(=O)O)CC1", "note": "[TETA]", "values": [{"measurement": "log KML", "setting": "[1]", "result": 21.9}, {"measurement": "acid stability (conditions)", "setting": "[2]", "result": "<4.5 min (5 M HCl, 90 °C)"}, {"measurement": "E1/2 (V)", "setting": "[3]", "result": "−0.980", "unit": "V"}, {"measurement": "reversibility of the redox event at E1/2", "setting": "[3]", "result": "irrev"}]}]}
